Experimental data published in US20120165309A1, “HETERO RING DERIVATIVE” (Astellas Pharma Inc., priority 2009, published 2012).
pIC50: −log10 of the molar value. Counter-ions that a name gives are not always drawn.

Experiments:
human PI3Kδ enzyme = molecular target: T1, human PI3Kδ enzyme (Homo sapiens, UniProt O00329); assay: PI3Kδ enzyme inhibitory activity (PI3-Kinase HTRF Assay kit); type: biochemical; settings: human PI3Kδ 10 ng/well, ATP 30 μM, PIP2 10 μM, room temperature 30 minutes
T1 construct: purchased Millipore Corporation 14-604
Method: 1. PI3Kδ Enzyme Inhibitory Activity
For the experiment, a PI3-Kinase HTRF Assay kit (Millipore Corporation, Catalogue No. 33-016) and a human PI3Kδ enzyme (Millipore Corporation, Catalogue No. 14-604) were used. The measurement method was in accordance with the appended instructions. The overview thereof is as follows.
PI3Kδ (10 ng/well), phosphatidylinositol-4,5-bisphosphate (10 μM), ATP (30 μM), and the test compound were mixed in a 384-well plate (total 20 μL), and incubated at room temperature for 30 minutes. EDTA and biotinylated phosphatidylinositol-3,4,5-triphosphate were added thereto to stop the reaction. Thereafter, a Europium labeled anti-GST antibody, a GST bond GRP1 PH domain, and streptavidin-APC were added thereto, followed by incubation overnight. An HTRF ratio was measured using an HTRF plate reader. The IC50 value of the compound was calculated, taking the inhibition rate without addition of the enzyme as 100% and the inhibition rate without addition of the test compound as 0%, by means of a logistic method.
(§1) In the Table, Ex represents Example Compound No. as described later, PI3Kδ represents the IC50 value (nM) of a PI3Kδ enzyme inhibitory activity, and PI3Kα represents the IC50 value (nM) of a PI3Kα enzyme inhibitory activity.

Human PI3Kα = molecular target: T2, Human PI3Kα (Homo sapiens, UniProt P42336); assay: PI3Kα enzyme inhibitory activity (Kinase-Glo Plus luminescence); type: biochemical; settings: Human PI3Kα 12 ng/well, phosphatidylinositol 0.2 μg/well, 37° C. for 3 hours
T2 construct: purchased Millipore Corporation 14-602
Method: 2. PI3Kα Enzyme Inhibitory Activity
Human PI3Kα (12 ng/well, Millipore Corporation, Catalogue No. 14-602), phosphatidylinositol (0.2 μg/well), and the test compound were mixed in a 384-well plate in a reaction buffer (50 mM Hepes, 10 mM NaCl, 10 mM MgCl2, 2 mM EGTA, 2 mM DTT, pH 7.3) (total 10 μl), and incubated at 37° C. for 3 hours. After the reaction, 10 μL of a Kinase-Glo Plus reagent (Promega, Catalogue No. V3772) was added thereto, and a luminescence was measured with a luminometer. The IC50 value of the compound was calculated, taking the inhibition rate without addition of the enzyme as 100% and the inhibition rate without addition of the test compound as 0%, by a logistic method.
as §1

IL-2 production = assay: Rat in vivo IL-2 production inhibition test (Concanavalin A induced); settings: po, male LEW/CrlCrlj rats, 10 mg/kg orally, 2 hours before Concanavalin A 15 mg/kg i.v., blood IL-2 at 3 hours after Concanavalin A, read-out: IL-2 production inhibition activity (inhibition rate vs vehicle control)
Method: 3. Rat In vivo IL-2 Production Inhibition Test
For the experiment, male LEW/CrlCrlj rats (Charles River Laboratories, Japan, Inc.) (6-week old, body weight 130 to 180 g) were used. The test compound was suspended in a 0.5% methyl cellulose solution and orally administered at 5 mL/kg. IL-2 production was induced by tail vein injection of Concanavalin A (Funakoshi Corporation, Catalogue No. L-1000) at a dose of 15 mg/kg.
The test was carried out according to the protocol shown below. At 2 hours or 16 hours before administration of Concanavalin A, the test compound was orally administered to rats. At 3 hours after administration of Concanavalin A, blood was collected. The IL-2 concentration in blood was quantified using an ELISA kit (R&D Systems, Inc., Catalogue No. DY502E). An inhibition rate was calculated from the amount of IL-2 produced in a group administered with the test compound with respect to the amount of the IL-2 produced of a control group administered with a vehicle.

[1] = tested on: Spleen cells (B cell proliferation); assay: Rat B cell proliferation inhibition test (anti-rat IgM, [3H]thymidine); type: cell-based; settings: anti-rat IgM 3 μg/well, 48 hours culture, [3H]thymidine uptake
Method: 4. Rat B Cell Proliferation Inhibition Test
Spleen cells (1.0×10^5 cells/well) prepared from male LEW/CrlCrlj rats (Charles River Laboratories, Japan, Inc.), mouse F(ab′)2 fragment anti-rat IgM (3 μg/well, SouthernBiotech Associates, Inc., Catalogue No. 3082-14) and the test compound dissolved in DMSO (final DMSO concentration 0.1%) were mixed in a 96-well plate using a 10% FCS-containing RPMI-1640 culture medium (total 200 μL). They were cultured in a CO2 incubator for 48 hours and [^3H]thymidine (925 GBq/mmol, Moravek Biochemicals, Inc., Catalogue No. MT6038) was added thereto at 0.037 MBq/well at 4 hours before completion of culture. Cells were harvested in a GF/C glass filter using a cell harvester, and a radioactivity on the filter was measured using a liquid scintillation counter. The IC50 value of the compound was calculated, taking the dpm (disintegration per minute) without addition of IgM as an inhibition rate of 100% and the dpm without addition of the test compound as an inhibition rate of 0%, by a logistic method.

T1 sequence (O00329 whole entry): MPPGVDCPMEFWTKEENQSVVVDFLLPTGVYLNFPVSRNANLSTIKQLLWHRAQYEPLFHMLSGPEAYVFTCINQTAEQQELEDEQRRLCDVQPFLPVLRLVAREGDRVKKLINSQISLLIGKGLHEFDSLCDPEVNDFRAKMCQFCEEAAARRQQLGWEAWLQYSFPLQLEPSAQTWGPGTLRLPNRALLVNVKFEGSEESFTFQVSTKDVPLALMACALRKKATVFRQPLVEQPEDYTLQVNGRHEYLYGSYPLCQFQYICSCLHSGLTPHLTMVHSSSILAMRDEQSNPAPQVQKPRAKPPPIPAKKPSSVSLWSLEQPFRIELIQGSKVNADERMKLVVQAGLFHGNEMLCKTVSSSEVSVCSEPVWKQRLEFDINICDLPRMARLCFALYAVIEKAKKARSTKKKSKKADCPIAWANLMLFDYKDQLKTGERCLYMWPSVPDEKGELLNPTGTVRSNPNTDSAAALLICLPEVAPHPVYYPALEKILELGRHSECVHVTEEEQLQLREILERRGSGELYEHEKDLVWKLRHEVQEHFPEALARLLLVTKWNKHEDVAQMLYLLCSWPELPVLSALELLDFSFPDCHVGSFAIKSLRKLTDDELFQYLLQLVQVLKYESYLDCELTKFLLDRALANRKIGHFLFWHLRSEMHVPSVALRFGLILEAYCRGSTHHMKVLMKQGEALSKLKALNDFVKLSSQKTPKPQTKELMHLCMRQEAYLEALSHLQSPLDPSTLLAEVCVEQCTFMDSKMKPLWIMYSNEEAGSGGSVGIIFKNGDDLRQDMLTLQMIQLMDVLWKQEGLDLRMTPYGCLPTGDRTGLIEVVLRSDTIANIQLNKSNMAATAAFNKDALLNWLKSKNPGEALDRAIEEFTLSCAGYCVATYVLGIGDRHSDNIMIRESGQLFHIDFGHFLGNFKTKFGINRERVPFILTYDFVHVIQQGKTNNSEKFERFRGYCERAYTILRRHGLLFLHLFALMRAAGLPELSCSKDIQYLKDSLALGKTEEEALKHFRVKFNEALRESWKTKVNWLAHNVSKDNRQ
T1 sequence (P27986 whole entry partner): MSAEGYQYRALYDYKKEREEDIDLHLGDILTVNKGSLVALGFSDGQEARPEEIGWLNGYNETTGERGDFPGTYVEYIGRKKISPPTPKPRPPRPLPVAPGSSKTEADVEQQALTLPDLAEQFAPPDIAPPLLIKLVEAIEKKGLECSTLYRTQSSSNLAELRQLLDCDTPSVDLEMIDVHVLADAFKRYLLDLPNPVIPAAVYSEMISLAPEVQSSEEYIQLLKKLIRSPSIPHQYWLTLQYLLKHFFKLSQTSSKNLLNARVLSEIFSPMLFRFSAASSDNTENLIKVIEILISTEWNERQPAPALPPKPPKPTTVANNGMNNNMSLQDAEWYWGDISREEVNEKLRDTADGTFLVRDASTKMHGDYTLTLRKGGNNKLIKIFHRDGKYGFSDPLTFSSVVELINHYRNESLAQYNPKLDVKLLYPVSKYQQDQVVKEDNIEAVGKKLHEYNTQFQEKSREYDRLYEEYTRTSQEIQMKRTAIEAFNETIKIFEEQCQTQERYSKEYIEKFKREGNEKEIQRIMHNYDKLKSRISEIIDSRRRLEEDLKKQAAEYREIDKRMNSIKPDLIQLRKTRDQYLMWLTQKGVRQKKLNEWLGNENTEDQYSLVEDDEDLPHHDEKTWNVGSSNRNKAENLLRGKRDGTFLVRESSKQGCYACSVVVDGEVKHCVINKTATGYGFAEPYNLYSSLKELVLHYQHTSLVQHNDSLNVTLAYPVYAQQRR
T2 sequence (P42336 whole entry): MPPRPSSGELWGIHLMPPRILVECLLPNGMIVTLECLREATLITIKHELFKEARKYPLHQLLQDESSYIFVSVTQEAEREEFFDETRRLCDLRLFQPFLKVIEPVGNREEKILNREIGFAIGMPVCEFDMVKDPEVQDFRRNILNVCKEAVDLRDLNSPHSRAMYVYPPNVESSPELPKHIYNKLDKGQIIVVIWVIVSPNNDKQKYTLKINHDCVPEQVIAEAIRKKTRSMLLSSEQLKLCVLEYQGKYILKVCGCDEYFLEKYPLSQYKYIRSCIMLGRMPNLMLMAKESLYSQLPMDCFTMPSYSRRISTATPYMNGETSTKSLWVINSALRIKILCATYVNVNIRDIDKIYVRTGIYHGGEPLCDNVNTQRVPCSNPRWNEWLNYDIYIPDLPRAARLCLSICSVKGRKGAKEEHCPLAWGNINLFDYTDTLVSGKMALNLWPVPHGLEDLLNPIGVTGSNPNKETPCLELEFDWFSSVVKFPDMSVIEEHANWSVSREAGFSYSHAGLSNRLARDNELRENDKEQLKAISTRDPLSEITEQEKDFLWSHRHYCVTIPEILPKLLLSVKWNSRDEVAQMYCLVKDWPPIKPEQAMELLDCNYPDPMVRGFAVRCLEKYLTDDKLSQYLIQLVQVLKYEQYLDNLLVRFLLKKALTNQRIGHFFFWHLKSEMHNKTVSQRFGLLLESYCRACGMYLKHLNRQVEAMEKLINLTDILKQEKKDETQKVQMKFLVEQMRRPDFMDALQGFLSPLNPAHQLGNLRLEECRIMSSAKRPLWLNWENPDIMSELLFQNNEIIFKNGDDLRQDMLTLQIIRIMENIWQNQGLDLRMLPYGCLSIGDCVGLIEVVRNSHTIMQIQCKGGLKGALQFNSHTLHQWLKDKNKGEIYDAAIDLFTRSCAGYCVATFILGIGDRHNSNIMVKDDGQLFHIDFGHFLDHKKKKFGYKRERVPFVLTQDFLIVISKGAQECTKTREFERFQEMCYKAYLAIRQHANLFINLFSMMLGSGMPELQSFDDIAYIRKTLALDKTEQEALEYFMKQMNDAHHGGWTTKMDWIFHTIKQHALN
T2 sequence (P27986 whole entry partner): as the sequence (P27986 whole entry partner) above

Compound	pIC50 (human PI3Kδ enzyme)	pIC50 (Human PI3Kα)	inhibition in vivo at 10 mg/kg (IL-2 production) [%]	pIC50 [1]
CN(C)[C@H]1CC[C@H](Nc2nc(N3CCOCC3)nc(-n3c(C(F)F)nc4ccccc43)n2)CC1 [Example 4, trans-N′-{4-[2-(difluoromethyl)-1H-benzimidazol-1-yl]-6-morpholin-4-yl-1,3,5-triazin-2-yl}-N,N-dimethylcyclohexane-1,4-diamine]	7.48	5.70	83	8.74
O=C1CCCN1[C@H]1CC[C@H](Nc2nc(N3CCOCC3)cc(-n3c(C(F)F)nc4ccccc43)n2)CC1 [Example 11, 1-[trans-4-({4-[2-(difluoromethyl)-1H-benzimidazol-1-yl]-6-morpholin-4-ylpyrimidin-2-yl}amino)cyclohexyl]pyrrolidin-2-one]	7.85	6.03	80	8.21
CN(C)CC(=O)N[C@H]1CC[C@H](Oc2cc(-n3c(C(F)F)nc4ccccc43)nc(N3CCOCC3)n2)CC1 [Example 24, N-[trans-4-({6-[2-(difluoromethyl)-1H-benzimidazol-1-yl]-2-morpholin-4-ylpyrimidin-4-yl}oxy)cyclohexyl]-N,N-dimethylglycinamide hydrochloride]	8.28	< 5.52	79	8.38
CN(C)CC(=O)N[C@H]1CC[C@H](Nc2nc(N3CCOCC3)nc(-n3c(C(F)F)nc4ccccc43)n2)CC1 [Example 40]	–	5.92	94	–
CN(C)CC(=O)N[C@H]1CC[C@H](Nc2cc(-n3c(C(F)F)nc4ccccc43)nc(N3CCOCC3)n2)CC1 [Example 46]	7.36	< 5.52	71	8.28
CC(=O)N[C@H]1CC[C@H](Nc2nc(N3CCOCC3)cc(-n3c(C(F)F)nc4ccccc43)n2)CC1 [Example 194]	–	–	89	–
FC(F)c1nc2ccccc2n1-c1cc(N2CCOCC2)nc(NC[C@H]2CC[C@H](N3CCOCC3)CC2)n1 [Example 201]	–	–	76	–
FC(F)c1nc2ccccc2n1-c1cc(N2CCOCC2)nc(NC[C@H]2CC[C@H](N3CCCCC3)CC2)n1 [Example 202]	–	–	80	–
CN(CCF)[C@H]1CC[C@H](CNc2nc(N3CCOCC3)cc(-n3c(C(F)F)nc4ccccc43)n2)CC1 [Example 206]	8.36	5.48	83	8.39
COCCN(C)[C@H]1CC[C@H](CNc2nc(N3CCOCC3)cc(-n3c(C(F)F)nc4ccccc43)n2)CC1 [Example 219]	7.85	5.22	78	8.46
CC(C)(O)[C@@H]1CCCN1C1CCC(CNc2nc(N3CCOCC3)cc(-n3c(C(F)F)nc4ccccc43)n2)CC1 (some centres unmarked) [Example 490]	8.03	5.80	–	9.12
C=CCN(C(C)COC)[C@H]1CC[C@H](CNc2nc(N3CCOC[C@@H]3C)cc(-n3c(C(F)F)nc4ccccc43)n2)CC1 (some centres unmarked) [Example 491]	8.35	6.24	–	8.74
CN(CC(C)(C)O)[C@H]1CC[C@H](CNc2cc(-n3c(C(F)F)nc4ccccc43)nc(N3CCOCC3)n2)CC1 [Example 495]	7.85	5.17	–	8.77
COCCN[C@H]1CC[C@H](CNc2cc(-n3c(C(F)F)nc4ccccc43)nc(N3CCOCC3)n2)CC1 [Example 496]	7.77	5.12	–	8.77
CN1CCC[C@H]1C(=O)N[C@H]1CC[C@H](Oc2cc(-n3c(C(F)F)nc4ccccc43)nc(N3CCOCC3)n2)CC1 [Example 500]	7.85	< 5.00	–	8.57
CC(N(C)[C@H]1CC[C@H](CNc2nc(N3CCOC[C@@H]3C)cc(-n3c(C(F)F)nc4ccccc43)n2)CC1)C(C)(C)O (some centres unmarked) [Example 505]	8.39	6.35	–	9.34
CC(N(C)[C@H]1CC[C@H](CNc2nc(N3CCOC[C@H]3C)cc(-n3c(C(F)F)nc4ccccc43)n2)CC1)C(C)(C)O (some centres unmarked) [Example 506]	8.37	6.23	–	9.12
COCC(C)N(C)[C@H]1CC[C@H](CNc2nc(N3CCOC[C@H]3C)cc(-n3c(C(F)F)nc4ccccc43)n2)CC1 (some centres unmarked) [Example 507]	8.31	6.31	–	9.42
CCN(C(C)COC)[C@H]1CC[C@H](CNc2nc(N3CCOC[C@H]3C)cc(-n3c(C(F)F)nc4ccccc43)n2)CC1 (some centres unmarked) [Example 508]	8.34	6.21	–	9.43
FC[C@H]1CCCN1[C@H]1CC[C@@H](CNc2cc(-n3c(C(F)F)nc4ccccc43)nc(N3CCOCC3)n2)CC1 [Example 510]	7.44	< 5.00	–	7.74
FC[C@H]1CCCN1[C@H]1CC[C@H](CNc2cc(-n3c(C(F)F)nc4ccccc43)nc(N3CCOCC3)n2)CC1 [Example 511]	8.33	5.70	–	8.92
COC[C@@H]1CCCN1[C@H]1CC[C@@H](CNc2cc(-n3c(C(F)F)nc4ccccc43)nc(N3CCOCC3)n2)CC1 [Example 512]	7.64	< 5.00	–	8.00
COC[C@@H]1CCCN1[C@H]1CC[C@H](CNc2cc(-n3c(C(F)F)nc4ccccc43)nc(N3CCOCC3)n2)CC1 [Example 513]	8.46	5.51	–	9.19
FC[C@@H]1CCCN1[C@H]1CC[C@H](CNc2nc(N3CCOCC3)cc(-n3c(C(F)F)nc4ccccc43)n2)CC1 [Example 515]	8.22	5.92	–	8.39
FC(F)c1nc2ccccc2n1-c1cc(NC[C@H]2CC[C@H](N3CCC[C@H]3CN3CCCC3)CC2)nc(N2CCOCC2)n1 [Example 527]	7.85	5.24	–	8.55
FC[C@@H]1CCN1[C@H]1CC[C@H](CNc2cc(-n3c(C(F)F)nc4ccccc43)nc(N3CCOCC3)n2)CC1 [Example 539]	8.12	5.66	–	9.08
C[C@@H]1COCCN1[C@H]1CC[C@H](CNc2cc(-n3c(C(F)F)nc4ccccc43)nc(N3CCOCC3)n2)CC1 [Example 546]	7.30	5.26	–	8.66
